# Test results reported in ChEMBL document CHEMBL1201862, “PubChem BioAssay data set” (2004).
#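 Briefly, cells in 96-well plates were exposed to five compound concentrations for 48 h, and endpoints were estimated by linear interpolation. GI50 = concentration required for 50% inhibition of growth.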 The source made the active and inactive calls. Cut-off read from the data, not from the text of the source: active = GI50 up to about 1.1 µM and inactive = higher.
# How the values were obtained:
# Assay in all cases: inhibition of tumour cell growth, NCI panel, 48 h
# 786-0 = test system: 786-0
# A498 = test system: A498
# A549 = test system: A549
# ACHN = test system: ACHN
# BT-549 = test system: BT-549
# CAKI-1 = test system: CAKI-1
# CCRF-CEM = test system: CCRF-CEM
# COLO 205 = test system: COLO 205
# EKVX = test system: EKVX
# HCC 2998 = test system: HCC 2998
# HCT-116 = test system: HCT-116
# HCT-15 = test system: HCT-15
# HOP-62 = test system: HOP-62
# HOP-92 = test system: HOP-92
# HT-29 = test system: HT-29
# Hs-578T = test system: Hs-578T
# IGROV-1 = test system: IGROV-1
# K562 = test system: K562
# KM12 = test system: KM12
# LOX IMVI = test system: LOX IMVI
# M14 = test system: M14
# MCF7 = test system: MCF7
# MDA-MB-231 = test system: MDA-MB-231
# MDA-MB-435 = test system: MDA-MB-435
# MDA-N = test system: MDA-N
# MOLT-4 = test system: MOLT-4
# Malme-3M = test system: Malme-3M
# NCI-H226 = test system: NCI-H226
# NCI-H23 = test system: NCI-H23
# NCI-H460 = test system: NCI-H460
# NCI-H522 = test system: NCI-H522
# NCI/ADR-RES = test system: NCI/ADR-RES
# OVCAR-3 = test system: OVCAR-3
# OVCAR-4 = test system: OVCAR-4
# OVCAR-5 = test system: OVCAR-5
# OVCAR-8 = test system: OVCAR-8
# PC-3 = test system: PC-3
# RPMI-8226 = test system: RPMI-8226
# RXF 393 = test system: RXF 393
# SF-268 = test system: SF-268
# SF-295 = test system: SF-295
# SF-539 = test system: SF-539
# SK-MEL-2 = test system: SK-MEL-2
# SK-MEL-5 = test system: SK-MEL-5
# SK-OV-3 = test system: SK-OV-3
# SN12C = test system: SN12C
# SNB-19 = test system: SNB-19
# SNB-75 = test system: SNB-75
# SR = test system: SR
# SW-620 = test system: SW-620
# T47D = test system: T47D
# TK-10 = test system: TK-10
# U-251 = test system: U-251
# UACC-257 = test system: UACC-257
# UACC-62 = test system: UACC-62
# UO-31 = test system: UO-31
smiles,measurement,setting,value
Cn1c(=O)c2c(-c3ccccc3)onc2n(C)c1=O,GI50,786-0,29 µM (inactive)
same,GI50,A498,64.1 µM (inactive)
same,GI50,A549,21.3 µM (inactive)
same,GI50,ACHN,31.9 µM (inactive)
same,GI50,BT-549,17.2 µM (inactive)
same,GI50,CAKI-1,42.1 µM (inactive)
same,GI50,CCRF-CEM,22.4 µM (inactive)
same,GI50,COLO 205,43.2 µM (inactive)
same,GI50,EKVX,38.4 µM (inactive)
same,GI50,HCC 2998,32.7 µM (inactive)
same,GI50,HCT-116,27.4 µM (inactive)
same,GI50,HCT-15,21.1 µM
same,GI50,HOP-62,17.1 µM (inactive)
same,GI50,HOP-92,42 µM (inactive)
same,GI50,HT-29,25.2 µM (inactive)
same,GI50,Hs-578T,24.5 µM (inactive)
same,GI50,IGROV-1,20.3 µM (inactive)
same,GI50,K562,30.3 µM (inactive)
same,GI50,KM12,34 µM (inactive)
same,GI50,LOX IMVI,21.2 µM (inactive)
same,GI50,M14,16.9 µM (inactive)
same,GI50,MCF7,12.9 µM (inactive)
same,GI50,MDA-MB-231,49.9 µM (inactive)
same,GI50,MDA-MB-435,44.5 µM (inactive)
same,GI50,MDA-N,50.2 µM (inactive)
same,GI50,MOLT-4,26.8 µM (inactive)
same,GI50,Malme-3M,46.8 µM (inactive)
same,GI50,NCI-H226,> 100 µM (inactive)
same,GI50,NCI-H23,14 µM (inactive)
same,GI50,NCI-H460,35.9 µM (inactive)
same,GI50,NCI-H522,27.9 µM (inactive)
same,GI50,NCI/ADR-RES,27.5 µM (inactive)
same,GI50,OVCAR-3,12.1 µM (inactive)
same,GI50,OVCAR-4,43.2 µM (inactive)
same,GI50,OVCAR-5,31 µM (inactive)
same,GI50,OVCAR-8,24 µM (inactive)
same,GI50,PC-3,15 µM (inactive)
same,GI50,RPMI-8226,15 µM (inactive)
same,GI50,RXF 393,21.3 µM (inactive)
same,GI50,SF-268,35.2 µM (inactive)
same,GI50,SF-295,40.7 µM (inactive)
same,GI50,SF-539,37.9 µM (inactive)
same,GI50,SK-MEL-2,15.8 µM (inactive)
same,GI50,SK-MEL-5,30.7 µM (inactive)
same,GI50,SK-OV-3,> 100 µM (inactive)
same,GI50,SN12C,30.4 µM (inactive)
same,GI50,SNB-19,40.7 µM (inactive)
same,GI50,SNB-75,24.6 µM (inactive)
same,GI50,SR,36.6 µM (inactive)
same,GI50,SW-620,26.6 µM (inactive)
same,GI50,T47D,23.8 µM (inactive)
same,GI50,TK-10,14.4 µM (inactive)
same,GI50,U-251,28.1 µM (inactive)
same,GI50,UACC-257,31.3 µM (inactive)
same,GI50,UACC-62,21.7 µM (inactive)
same,GI50,UO-31,19.5 µM (inactive)
